Data taken from US20240336594A1, “SIX-MEMBERED ARYL OR HETEROARYL AMIDES, AND COMPOSITION AND USE THEREOF” (BETTA PHARMACEUTICALS CO., LTD, priority 2021, published 2024).

The compounds below were run against T1, MALT1 (Homo sapiens, UniProt Q9UDY8) (assay: MALT1 protease inhibition assay (AMC-labeled peptide, fluorescence 360/460)). Details: substrate Ac-LRSR-AMC, 15 min preincubation, 90 min at 25° C.
T1 sequence (Q9UDY8 1-824): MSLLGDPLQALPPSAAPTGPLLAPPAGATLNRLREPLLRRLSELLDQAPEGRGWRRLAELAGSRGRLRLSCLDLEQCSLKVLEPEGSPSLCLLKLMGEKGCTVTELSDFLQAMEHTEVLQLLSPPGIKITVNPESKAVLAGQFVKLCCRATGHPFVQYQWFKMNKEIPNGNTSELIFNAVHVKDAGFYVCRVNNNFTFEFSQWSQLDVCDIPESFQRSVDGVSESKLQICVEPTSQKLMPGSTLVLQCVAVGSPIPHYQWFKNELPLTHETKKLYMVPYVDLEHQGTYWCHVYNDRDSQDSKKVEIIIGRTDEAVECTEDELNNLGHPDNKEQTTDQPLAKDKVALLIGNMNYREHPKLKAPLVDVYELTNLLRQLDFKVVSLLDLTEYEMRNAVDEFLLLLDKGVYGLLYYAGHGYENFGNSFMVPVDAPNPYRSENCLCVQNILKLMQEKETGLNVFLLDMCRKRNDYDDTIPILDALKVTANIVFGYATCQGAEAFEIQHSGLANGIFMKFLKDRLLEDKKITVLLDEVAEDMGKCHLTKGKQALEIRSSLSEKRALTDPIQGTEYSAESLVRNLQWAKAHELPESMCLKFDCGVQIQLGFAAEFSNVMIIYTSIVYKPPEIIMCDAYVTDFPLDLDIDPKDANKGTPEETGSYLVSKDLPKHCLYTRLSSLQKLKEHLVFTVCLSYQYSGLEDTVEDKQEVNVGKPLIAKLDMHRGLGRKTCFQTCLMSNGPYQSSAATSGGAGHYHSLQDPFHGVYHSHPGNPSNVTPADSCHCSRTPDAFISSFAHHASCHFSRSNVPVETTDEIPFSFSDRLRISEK
Format: biochemical
Summary of the method: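 Recombinant MALT1 preincubated with test compounds (10-point 1:3 dilutions in DMSO, duplicates) for 15 min at 25 °C in citrate-containing protease buffer with DTT, then AMC-labeled peptide added for 90 min at 25 °C. Inhibition normalized to no-compound (max) and no-enzyme (min) wells; IC50 from curve fit.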
For `Cc1nnc(CNC(=O)c2ncc(NC(=O)c3cc(F)c(-c4ccc(F)cc4N)cc3Cl)cc2Cl)o1` [Example A462, 5-(2′-amino-5-chloro-2,4′-difluoro-[1,1′-biphenyl]-4-carboxamido)-3-chloro-N-((5-methyl-1,3,4-oxadiazol-2-yl)methyl)picolinamide], the IC50 was 0.01 to 0.1 µM.
For `C#Cc1cc(F)ccc1-c1cc(C)c(C(=O)Nc2cnc(-n3nccn3)c(Cl)c2)cc1C#C` [Example A415], the IC50 was 0.01 to 0.1 µM.
`CC(C#N)NC(=O)c1ncc(NC(=O)c2cc(F)c(-c3ccc(F)cc3N)cc2Cl)cc1Cl` (stereo not shown) [Example A450, 5-(2′-amino-5-chloro-2,4′-difluoro-[1,1′-biphenyl]-4-carboxamido)-3-chloro-N-(1-cyanoethyl)picolinamide] was tested, and the IC50 was 0.01 to 0.1 µM.
In the case of `C#Cc1cc(F)cnc1-c1cc(Cl)c(C(=O)Nc2ccnc(C(F)(F)F)c2)cc1F` [Example A324, 2-chloro-4-(3-ethyny1-5-fluoropyridin-2-y1)-5-fluoro-N-(2-(trifluoromethyl)pyridin-4-yl)benzamide], the IC50 is reported as no more than 0.01 µM.
With `CC1(CNC(=O)c2ncc(NC(=O)c3cc(F)c(-c4ccc(F)cc4N)cc3Cl)cc2Cl)CC1` [Example A436, 5-(2′-amino-5-chloro-2,4′-difluoro-[1,1′-biphenyl]-4-carboxamido)-3-chloro-N-((1-methylcyclopropyl)methyl) picolinamide] the IC50 was 0.1 to 0.5 µM.
With `C#Cc1cncc(N)c1-c1cc(Cl)c(C(=O)Nc2cnc(C(=O)NCCF)c(Cl)c2)cc1F` [Example A472, 5-(4-(3-amino-5-ethynylpyridin-4-yl)-2-chloro-5-fluorobenzamido)-3-chloro-N-(2-fluoroethyl)picolinamide] the IC50 was no more than 0.01 µM.
Work on `C#Cc1cnc(F)c(N)c1-c1cc(Cl)c(C(=O)Nc2cnc(-n3nccn3)c(C(F)(F)F)c2)cc1F` [Example A552, N-(6-(2H-1,2,3-triazol-2-yl)-5-(trifluoromethyl)pyridin-3-yl)-4-(3-amino-5-ethynyl-2-fluoropyridin-4-yl)-2-chloro-5-fluorobenzamide] yielded an IC50 of no more than 0.01 µM.
`CC(C)(C)CNC(=O)c1ncc(NC(=O)c2cc(F)c(-c3ccc(F)cc3N)cc2Cl)cc1Cl` [Example A446, 5-(2′-amino-5-chloro-2,4′-difluoro-[1,1′-biphenyl]-4-carboxamido)-3-chloro-N-neopentylpicolinamide] gave an IC50 of no more than 0.01 µM.
`Nc1cc(F)ccc1-c1cc(Cl)c(C(=O)Nc2cnc(-n3nccn3)c(Cl)c2)cc1N` [Example A460, 2,2′-diamino-5-chloro-N-(5-chloro-6-(2H-1,2,3-triazol-2-yl)pyridin-3-yl)-4′-fluoro-[1,1′-biphenyl]-4-carboxamide] showed an IC50 of 0.01 to 0.1 µM.
Work on `C#CCNC(=O)c1ncc(NC(=O)c2cc(F)c(-c3ccc(F)cc3N)cc2Cl)cc1Cl` [Example A439, 5-(2′-amino-5-chloro-2,4′-difluoro-[1,1′-biphenyl]-4-carboxamido)-3-chloro-N-(prop-2-yn-1-yl) picolinamide] yielded an IC50 greater than 0.5 µM.
`C=Cc1cc(C(=O)Nc2cnc(-n3nccn3)c(Cl)c2)c(Cl)cc1-c1ccc(F)cc1N` [Example A424, 2′-amino-5-chloro-N-(5-chloro-6-(2H-1,2,3-triazol-2-yl)pyridin-3-yl)-4′-fluoro-2-vinyl-[1,1′-biphenyl]-4-carboxamide] showed an IC50 of 0.01 to 0.1 µM.
In the case of `C#Cc1cnc(F)c(N)c1-c1cc(Cl)c(C(=O)Nc2cnc(-n3nccn3)c(Cl)c2)cc1F` [Example A485, 4-(3-amino-5-ethynyl-2-fluoropyridin-4-yl)-2-chloro-N-(5-chloro-6-(2H-1,2,3-triazol-2-yl)pyridin-3-yl)-5-fluorobenzamide], the IC50 is reported as no more than 0.01 µM.
`Cc1cc(-c2ccc(F)cc2Cl)c(-c2ccccc2)cc1C(=O)Nc1cnc(-n2nccn2)c(Cl)c1` [Example A419, 2-chloro-N-(5-chloro-6-(2H-1,2,3-triazol-2-yl)pyridin-3-yl)-4-fluoro-5′-methyl-[1,1′:2′,1″-terphenyl]-4′-carboxamide] was tested, and the IC50 was greater than 0.5 µM.
Compound `Nc1cc(F)ccc1-c1cc(Cl)c(C(=O)Nc2cnc(C(=O)NCCF)c(Cl)c2)cc1F` [Example A461, 5-(2′-amino-5-chloro-2,4′-difluoro-[1,1′-biphenyl]-4-carboxamido)-3-chloro-N-(2-fluoroethyl)picolinamide] has an IC50 of 0.01 to 0.1 µM.
Work on `Nc1c(Cl)ncc(Br)c1-c1cc(Cl)c(C(=O)Nc2cnc(-n3nccn3)c(C(F)(F)F)c2)cc1F` [Example A558] yielded an IC50 of no more than 0.01 µM.
In the case of “5-(2′-amino-5-chloro-2,4′- difluoro-[1,1′-biphenyl]-4- carboxamido)-3-chloro-N- (2,2-difluoro-2λ3- ethyl)picolinamide [Example A457]”, the IC50 is reported as 0.01 to 0.1 µM.

What follows are compounds tested on IL-2 secretion of Jurkat cells (PMA/Ionomycin inducing) (assay: ELISA method to detect IL-2 secretion induced by PMA/Ionomycin). Details: Homo sapiens, 20 h.
Format: cell-based
Method: 12.5*10^3 Jurkat cells were seeded on a 96-well plate and incubated with various concentrations of compound solution for 30 min. Then, 500×PMA/Ionomycin stimulating factor was diluted with culture medium and added to the cell plate. […] The final concentrations of the compounds were 10000, 3333.3, 1111.1, 370.4, 123.5, 41.2, 13.7, 4.6, 1.5, 0 nM (The final concentration of DMSO is 0.5%). After incubation for 20 h, the supernatant was collected via centrifugation. The final IL-2 concentration was detected by ELISA method (IL-2 Duoset, R&D Systems, DY202). The signal value of each sample at a wavelength of 450 nm was collected by EnVision multifunctional microplate reader and converted to the IL-2 concentration via the ELISACalc.exe software. The IL-2 secretion inhibitory activity IC50 was fitted by GraphPad Prism software. The cell viability was tested simultaneously using the Cell-Titer Glo kit.
The compounds of the present invention show strong inhibitory effect on IL-2 secretion of Jurkat cells (PMA/Ionomycin inducing).
In the case of `COc1cc(F)ccc1-c1cc(C)c(C(=O)Nc2cnc(-n3nccn3)c(Cl)c2)cc1F` [Example A118, N-(5-chloro-6-(2H-1,2,3-triazol-2-yl)pyridin-3-yl)-2,4′-difluoro-2′-methoxy-5-methyl-[1,1′-biphenyl]-4-carboxamide], the IC50 is reported as 0.082 µM.
For `O=C(Nc1cnc(-n2nccn2)c(C(F)(F)F)c1)c1cnc(-c2ccc(F)cc2Cl)cc1Cl` [Example A18, N-(6-(2H-1,2,3-triazol-2-yl)-5-(trifluoromethyl)pyridin-3-yl)-4-chloro-6-(2-chloro-4-fluorophenyl)nicotinamide], the IC50 was 0.598 µM.
In the case of `COc1ccccc1-c1cc(Cl)c(C(=O)Nc2cnc(-n3nccn3)c(C(F)(F)F)c2)cc1F` [Example A67], the IC50 is reported as 0.325 µM.
With `O=C(Nc1cnc(-n2nccn2)c(C(F)(F)F)c1)c1ccc(-c2ccc(F)cc2Cl)cc1Cl` [Example A17, N-(6-(2H-1,2,3-triazol-2-yl)-5-(trifluoromethyl)pyridin-3-yl)-2′,3-dichloro-4′-fluoro-[1,1′-biphenyl]-4-carboxamide] the IC50 was 0.191 µM.
`O=C(Nc1cnc(-n2nccn2)c(Cl)c1)c1ccc(-c2ccccc2Cl)cc1Cl` [Example A42] gave an IC50 of 0.471 µM.
Work on `O=C(Nc1cnc(-n2nccn2)c(Cl)c1)c1ccc(-c2ccc(F)cc2Br)cc1Cl` [Example A102] yielded an IC50 of 0.154 µM.
`O=C(Nc1cnc(-n2nccn2)c(C(F)(F)F)c1)c1cc(F)c(-c2ccc(F)cc2Cl)cc1Cl` [Example A105] showed an IC50 of 0.134 µM.
For `Nc1ccccc1-c1cc(Cl)c(C(=O)Nc2cnc(-n3nccn3)c(C(F)(F)F)c2)cc1F` [Example A69], the IC50 was 0.195 µM.
For `Cc1cc(-c2ccc(F)cc2Cl)ccc1C(=O)Nc1cnc(-n2nccn2)c(C(F)(F)F)c1` [Example A16, N-(6-(2H-1,2,3-triazol-2-yl)-5-(trifluoromethyl)pyridin-3-yl)-2′-chloro-4′-fluoro-3-methyl-[1,1′-biphenyl]-4-carboxamide], the IC50 was 0.194 µM.
Compound `O=C(Nc1cnc(-n2nccn2)c(Cl)c1)c1ccc(-c2ccncc2Cl)cc1Cl` [Example A100] has an IC50 of 0.369 µM.
`COc1ccccc1-c1cc(C)c(C(=O)Nc2cnc(-n3nccn3)c(Cl)c2)cc1F` [Example A117, N-(5-chloro-6-(2H-1,2,3-triazol-2-yl)pyridin-3-yl)-2-fluoro-2′-methoxy-5-methyl-[1,1′-biphenyl]-4-carboxamide] was tested, and the IC50 was 0.184 µM.
For `O=C(Nc1cnc(-n2nccn2)c(C(F)(F)F)c1)c1ccc(-c2ccc(F)cc2Cl)cc1C1CC1` [Example A19, N-(6-(2H-1,2,3-triazol-2-yl)-5-(trifluoromethyl)pyridin-3-yl)-2′-chloro-3-cyclopropyl-4′-fluoro-[1,1′-biphenyl]-4-carboxamide], the IC50 was 0.632 µM.
In the case of `Cc1nc(-c2ccc(F)cc2Cl)ncc1C(=O)Nc1cnc(-n2nccn2)c(C(F)(F)F)c1` [Example A12], the IC50 is reported as 0.285 µM.
Compound `COc1cc(F)ccc1-c1ccc(C(=O)Nc2cnc(-n3nccn3)c(Cl)c2)c(Cl)c1` [Example A104] has an IC50 of 0.294 µM.
`Nc1ccccc1-c1cc(Cl)c(C(=O)Nc2cnc(-n3nccn3)c(C(F)(F)F)c2)cc1Cl` [Example A111, N-(6-(2H-1,2,3-triazol-2-yl)-5-(trifluoromethyl)pyridin-3-yl)-2′-amino-2,5-dichloro-[1,1′-biphenyl]-4-carboxamide] gave an IC50 of 0.283 µM.
